Tests used:
[1] = biological target: EIF2AK3 (PERK) catalytic domain (amino acids 536-1116) (Homo sapiens (Human), UniProt Q9NZJ5); test: PERK in vitro activity assay (isolated), TR-FRET kinase assay; details: isolated PERK enzyme, 1.5 μM ATP, GFP-eIF2a substrate; read-out: Biochemical IC50
How it was run: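 Human PERK catalytic domain (aa 536-1116) with 100-200 nM GFP-eIF2a in 50 mM HEPES pH 7.5, 10 mM MgCl2, 1.0 mM EGTA, 0.01% Brij-35; enzyme-started reaction run 45 min at room temperature. Stopped with 10 mM EDTA, 2 nM Tb-anti-phospho-eIF2a added for 90 min; IC50 from TR-FRET ratio by 4-parameter logistic fit.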

PERK = PERK (Homo sapiens (Human), UniProt Q9NZJ5); test: PERK cellular assay (TR-FRET, HEK293-EGFP-eIF2α cells, tunicamycin-induced ER stress); type: cell-based; details: tunicamycin 2 hours, read-out: Cellular IC50 (μM) (EIF2a)
How it was run: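 Cells pre-incubated with inhibitor 30 min at 37 °C, then ER stress induced with […] tunicamycin for 2 h. TR-FRET read on lysates; ratio normalized to DMSO control as percent inhibition over a 10-point, 3-fold dilution series; IC50 from 4-parameter logistic fit.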

Chain of PERK (Q9NZJ5 30-1116): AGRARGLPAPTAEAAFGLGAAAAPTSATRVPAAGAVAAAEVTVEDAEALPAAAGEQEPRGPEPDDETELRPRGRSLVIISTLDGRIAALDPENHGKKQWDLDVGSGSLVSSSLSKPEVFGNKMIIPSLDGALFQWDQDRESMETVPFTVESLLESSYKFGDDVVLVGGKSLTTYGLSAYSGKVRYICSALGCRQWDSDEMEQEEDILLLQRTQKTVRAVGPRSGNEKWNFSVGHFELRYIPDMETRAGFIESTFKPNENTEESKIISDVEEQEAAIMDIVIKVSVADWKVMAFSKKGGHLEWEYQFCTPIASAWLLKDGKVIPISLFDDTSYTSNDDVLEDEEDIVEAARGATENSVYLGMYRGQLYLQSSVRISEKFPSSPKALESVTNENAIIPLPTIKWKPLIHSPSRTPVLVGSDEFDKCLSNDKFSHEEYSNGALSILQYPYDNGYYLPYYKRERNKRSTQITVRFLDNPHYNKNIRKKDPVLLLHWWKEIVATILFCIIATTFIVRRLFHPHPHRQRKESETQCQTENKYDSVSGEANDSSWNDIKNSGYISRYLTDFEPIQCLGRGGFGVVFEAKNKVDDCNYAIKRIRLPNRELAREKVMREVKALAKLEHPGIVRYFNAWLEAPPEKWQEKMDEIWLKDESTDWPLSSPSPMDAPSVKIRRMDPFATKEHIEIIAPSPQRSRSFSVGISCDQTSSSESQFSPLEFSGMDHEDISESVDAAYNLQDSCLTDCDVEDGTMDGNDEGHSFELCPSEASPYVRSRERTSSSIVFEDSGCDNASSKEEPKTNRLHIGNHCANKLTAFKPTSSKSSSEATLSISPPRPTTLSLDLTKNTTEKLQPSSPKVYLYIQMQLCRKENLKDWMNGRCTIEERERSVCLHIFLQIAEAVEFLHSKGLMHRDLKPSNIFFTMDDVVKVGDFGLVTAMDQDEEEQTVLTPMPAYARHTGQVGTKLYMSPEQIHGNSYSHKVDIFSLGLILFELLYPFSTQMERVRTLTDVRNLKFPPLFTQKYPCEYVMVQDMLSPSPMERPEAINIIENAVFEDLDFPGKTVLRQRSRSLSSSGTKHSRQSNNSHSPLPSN
Chain of EIF2AK3 (PERK) catalytic domain (amino acids 536-1116) (Q9NZJ5 536-1116): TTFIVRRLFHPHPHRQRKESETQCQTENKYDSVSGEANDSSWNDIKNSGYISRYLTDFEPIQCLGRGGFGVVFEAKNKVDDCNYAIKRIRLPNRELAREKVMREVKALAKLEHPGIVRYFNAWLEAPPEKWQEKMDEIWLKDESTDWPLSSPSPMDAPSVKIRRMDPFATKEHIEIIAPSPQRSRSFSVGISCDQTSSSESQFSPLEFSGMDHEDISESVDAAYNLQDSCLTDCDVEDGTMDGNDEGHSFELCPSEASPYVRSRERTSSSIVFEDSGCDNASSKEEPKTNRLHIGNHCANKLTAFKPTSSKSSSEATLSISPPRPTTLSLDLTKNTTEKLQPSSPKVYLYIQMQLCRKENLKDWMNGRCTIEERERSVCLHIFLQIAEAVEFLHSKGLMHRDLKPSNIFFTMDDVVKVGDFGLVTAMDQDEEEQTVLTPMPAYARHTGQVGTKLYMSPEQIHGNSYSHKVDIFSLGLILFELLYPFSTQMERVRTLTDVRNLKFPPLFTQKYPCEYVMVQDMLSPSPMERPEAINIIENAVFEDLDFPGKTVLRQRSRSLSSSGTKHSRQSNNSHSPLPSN

Structure (SMILES)	IC50 [1] [nM]	IC50 (PERK) [µM]
Cc1c(-c2cnc(N)c(C(=O)NC3CC3)c2)ccc(NC(=O)C(O)c2cc(F)cc(F)c2)c1F (centres unmarked) [Example 120, 2-amino-N-cyclopropyl-5-(4-(2-(3,5-difluorophenyl)-2-hydroxyacetamido)-3-fluoro-2-methylphenyl) nicotinamide]	1 to 25	0.051 to 0.1
Cc1cc(NC(=O)Cc2cccc3ccccc23)ccc1-c1cnc(N)c(C(=O)NC(C)C)c1 [Example 207, 2-amino-N-isopropyl-5-(2-methyl-4-(2-(naphthalen-1-yl)acetamido)phenyl)nicotinamide]	1 to 25	0.251 to 0.5
Cc1cc(NC(=O)[C@H](O)c2cc(F)cc(F)c2)ccc1-c1cnc(N)c(C(=O)NC2CC2)c1 [Example 14, (R)-2-amino-N-cyclopropyl-5-(4-(2-(3,5-difluorophenyl)-2-hydroxyacetamido)-2-methylphenyl)nicotinamide]	1 to 25	0.026 to 0.05
Cc1cc(NC(=O)Cc2ccccc2C(F)(F)F)ccc1-c1cnc(N)c(C(=O)NC(C)C)c1 [Example 201, 2-amino-N-isopropyl-5-(2-methyl-4-(2-(2-(trifluoromethyl)phenyl)acetamido)phenyl)nicotinamide]	51 to 100	0.501 to 1
CNC(=O)c1cc(-c2ccc(NC(=O)C(O)c3cc(F)cc(F)c3)cc2C)cnc1N (single isomer, unassigned) [Example 11, 2-amino-5-(4-(2-(3,5-difluorophenyl)-2-hydroxyacetamido)-2-methylphenyl)-N-methylnicotinamide]	501 to 1000	1 to 2
Cc1cc(NC(=O)Cc2cccc3cnccc23)ccc1-c1cnc(N)c(C(=O)NC(C)C)c1 [Example 211, 2-amino-N-isopropyl-5-(4-(2-(isoquinolin-5-yl)acetamido)-2-methylphenyl) nicotinamide]	251 to 500	2 to 3
Cc1cc(NC(=O)Cc2ccccc2Cl)ccc1-c1cnc(N)c(C(=O)NC(C)C)c1 [Example 198, 2-amino-5-(4-(2-(2-chlorophenyl)acetamido)-2-methylphenyl)-N-isopropylnicotinamide]	26 to 50	0.501 to 1
CCc1cccc(C(O)C(=O)Nc2ccc(-c3cnc(N)c(C(=O)NC(C)C)c3)c(C)c2)c1 (single isomer, unassigned) [Example 73, 2-amino-5-(4-(2-(3-ethylphenyl)-2-hydroxyacetamido)-2-methylphenyl)-N-isopropylnicotinamide]	101 to 250	0.251 to 0.5
Cc1cc(NC(=O)C(O)c2cc(F)cc(F)c2)ccc1-c1cnc(N)c(C(=O)NC(C)C)c1 (centres unmarked) [Example 8, 2-amino-5-(4-(2-(3,5-difluorophenyl)-2-hydroxyacetamido)-2-methylphenyl)-N-isopropyl nicotinamide]	1 to 25	0.026 to 0.05
Cc1cc(NC(=O)CC2CC2)ccc1-c1cnc(N)c(C(=O)NC(C)C)c1 [Example 213, 2-amino-5-(4-(2-cyclopropyl-acetamido)-2-methylphenyl)-N-isopropylnicotinamide]	1000 to 2000	> 5
Cc1cc(NC(=O)C(N)c2ccccc2)ccc1-c1cnc(N)c(C(=O)NC(C)C)c1 (centres unmarked) [Example 7, 2-amino-5-(4-(2-amino-2-phenylacetamido)-2-methylphenyl)-N-isopropylnicotinamide]	1000 to 2000	> 5
Cc1c(-c2cnc(N)c(C(=O)NC3COC3)c2)ccc(NC(=O)C(O)c2cc(F)cc(F)c2)c1F (centres unmarked) [Example 121, 2-amino-5-(4-(2-(3,5-difluorophenyl)-2-hydroxyacetamido)-3-fluoro-2-methylphenyl)-N-(oxetan-3-yl)nicotinamide]	1 to 25	0.001 to 0.025
Cc1cc(NC(=O)C(C)(O)c2ccccc2)ccc1-c1cnc(N)c(C(=O)NC(C)C)c1 (centres unmarked) [Example 3, 2-amino-5-(4-(2-hydroxy-2-phenylpropanamido)-2-methylphenyl)-N-isopropylnicotinamide]	101 to 250	2 to 3
CNc1ccc(-c2ccc(NC(=O)C(O)c3cc(F)cc(F)c3)cc2C)cn1 (centres unmarked) [Example 172, 2-(3,5-difluorophenyl)-2-hydroxy-N-(3-methyl-4-(6-(methylamino)pyridin-3-yl)phenyl) acetamide]	51 to 100	1 to 2
Cc1cc(NC(=O)C(O)c2cccc3c2OCC3)ccc1-c1cnc(N)c(C(=O)NC(C)C)c1 (centres unmarked) [Example 75, 2-amino-5-(4-(2-(2,3-dihydrobenzofuran-7-yl)-2-hydroxyacetamido)-2-methylphenyl)-N-isopropylnicotinamide]	101 to 250	1 to 2
CCNC(=O)c1nc(-c2ccc(NC(=O)C(O)c3cc(F)cc(F)c3)cc2CC)cnc1N (centres unmarked) [Example 153, 3-amino-6-(4-(2-(3,5-difluorophenyl)-2-hydroxyactamido)-2-ethylphenyl)-N-ethylpyrazine-2-carboxamide]	1 to 25	0.026 to 0.05

Structure (SMILES)	IC50 [1] [nM]	IC50 (PERK) [µM]
CCc1cccc(C(O)C(=O)Nc2ccc(-c3cnc(N)c(C(=O)NC(C)C)c3)c(C)c2)c1 (single isomer, unassigned) [Example 72, 2-amino-5-(4-(2-(3-ethylphenyl)-2-hydroxyacetamido)-2-methylphenyl)-N-isopropylnicotinamide]	1 to 25	0.001 to 0.025
CCNC(=O)c1cc(-c2ccc(NC(=O)C(O)c3cc(F)cc(F)c3)c(F)c2C)cnc1N (centres unmarked) [Example 118, 2-amino-5-(4-(2-(3,5-difluorophenyl)-2-hydroxyacetamido)-3-fluoro-2-methylphenyl)-N-ethylnicotinamide]	1 to 25	0.026 to 0.05
Cc1cc(NC(=O)C(O)c2cccc(C(F)(F)F)c2)ncc1-c1cnc(N)c(C(=O)NC(C)C)c1 (centres unmarked) [Example 127, 6-amino-6′-(2-hydroxy-2-(3-(trifluoromethyl)phenyl)acetamido)-N-isopropyl-4′-methyl-[3,3′-bipyridine]-5-carboxamide]	251 to 500	> 5
Cc1c(-c2cnc(N)c(C(=O)NC(C)C)c2)ccc(NC(=O)C(O)c2cc(F)cc(F)c2)c1F (centres unmarked) [Example 115, 2-amino-5-(4-(2-(3,5-difluorophenyl)-2-hydroxyacetamido)-3-fluoro-2-methylphenyl)-N-isopropylnicotinamide]	1 to 25	0.001 to 0.025
CC(C)NC(=O)c1cc(-c2ccc(NC(=O)C(O)c3cc(F)cc(F)c3)cc2)cnc1N (centres unmarked) [Example 80, 2-amino-5-(4-(2-(3,5-difluorophenyl)-2-hydroxyacetamido)phenyl)-N-isopropylnicotinamide]	1 to 25	0.251 to 0.5
Cc1cc(NC(=O)C(O)c2cc(F)cc(F)c2)ccc1-c1cnc(N)c(C(=O)NC2CN(C)C2)c1 (centres unmarked) [Example 46, 2-amino-5-(4-(2-(3,5-difluorophenyl)-2-hydroxyacetamido)-2-methylphenyl)-N-(1-methylazetidin-3-yl)nicotinamide]	1 to 25	0.501 to 1
Cc1ccc(-c2ccc(NC(=O)C(O)c3cc(F)cc(F)c3)cc2C)cn1 (centres unmarked) [Example 180, 2-(3,5-difluorophenyl)-2-hydroxy-N-(3-methyl-4-(6-methylpyridin-3-yl)phenyl)acetamide]	1000 to 2000	> 5
Cc1cc(NC(=O)C(O)c2cc(F)cc(F)c2)ccc1-c1cnc(N)c(C(=O)N(C)C)c1 (centres unmarked) [Example 23, 2-amino-5-(4-(2-(3,5-difluorophenyl)-2-hydroxyacetamido)-2-methylphenyl)-N,N-dimethylnicotinamide]	> 5000	> 5
Cc1cc(NC(=O)Cc2cccc3ncccc23)ccc1-c1cnc(N)c(C(=O)NC(C)C)c1 [Example 212, 2-amino-N-isopropyl-5-(2-methyl-4-(2-(quinolin-5-yl)acetamido)phenyl)nicotinamide]	1000 to 2000	> 5
Cc1cc(NC(=O)C(O)c2cc(F)cc(F)c2)ccc1-c1cnc(N)c(C(=O)NC2CC(O)C2)c1 (centres unmarked) [Example 27, 2-amino-5-(4-(2-(3,5-difluorophenyl)-2-hydroxyacetamido)-2-methylphenyl)-N-(3-hydroxycyclobutyl) nicotinamide]	51 to 100	1 to 2
Cc1cc(NC(=O)C(=O)c2cc(F)cc(F)c2)ccc1-c1cnc(N)c(C(=O)NC(C)C)c1 [Example 184, 2-amino-5-(4-(2-(3,5-difluorophenyl)-2-oxoacetamido)-2-methylphenyl)-N-isopropyl nicotinamide]	251 to 500	0.101 to 0.25
CC(C)NC(=O)c1cc(-c2ccc(NC(=O)C(O)c3cc(F)cc(F)c3)c(F)c2Cl)cnc1N (centres unmarked) [Example 124, 2-amino-5-(2-chloro-4-(2-(3,5-diflouorophenyl)-2-hydroxyacetamido)-3-fluorophenyl)-N-isopropylnicotinamide]	26 to 50	0.051 to 0.1
CCc1cc(NC(=O)C(O)c2cc(F)cc(F)c2)ccc1-c1cnc(N)c(C(=O)NC(C)C)n1 (centres unmarked) [Example 152, 3-amino-6-(4-(2-(3,5-difluorophenyl)-2-hydroxyacetamido)-2-ethylphenyl)-N-isopropylpyrazine-2-carboxamide]	101 to 250	0.101 to 0.25
CCc1cccc(CC(=O)Nc2ccc(-c3cnc(N)c(C(=O)NC(C)C)c3)c(C)c2)c1 [Example 205, 2-amino-5-(4-(2-(3-ethylphenyl)acetamido)-2-methylphenyl)-N-isopropylnicotinamide]	1 to 25	0.101 to 0.25
CC(C)NC(=O)c1cc(-c2ccc(NC(=O)C(O)c3cc(F)cc(F)c3)cc2Cl)cnc1N (single isomer, unassigned) [Example 35]	51 to 100	0.101 to 0.25

From patent US12473296B2, “Perk inhibiting compounds” (HiberCell, Inc., priority 2019, dated 2025)
